In data set [1] the target is BCL6 BTB domain (Homo sapiens, UniProt P41182). Kind of data set: biochemical. The note with it: for BCL6 TR-FRET pIC50 mean: mean of n replicates. As for the experimental part: Supplementary experimental: protein production, purification and crystallography
3C protease cleavage site.
used without cleaving the tag, as a 6His was needed to bind to the anti-6His-Terbium antibody. For
For both plasmid constructs described above, transformed BL21-AI E. coli cells were grown in LB
carried out at 18 °C for 18 hours. Cells were harvested by centrifugation (5500 g for 30 minutes at 4
oC) and stored at -80 °C.
Cells were re-suspended in a buffer composed of 20 mM Tris pH 8, 250 mM NaCl, 1 mM MgCl2, 0.5
Cells were lysed by sonication followed by centrifugation at 21,000 g for 45 minutes at 4 °C. […]
The final protein was assessed for purity
and molar mass by SDS-PAGE and high-resolution mass spectrometry, respectively.
directly eluted from the HisTrap FF column without HRV-3C treatment, and submitted to Superdex75
gel filtration as described above. […]
2. Supplementary experimental: biological assay conditions
IC50 values were determined using
a sigmoidal four-parameter logistic fit equation.

Data set [2] is described as follows: NMR solubility assay. Format: physicochemical. The following applies: HEPES buffer, 5% DMSO, room temperature. As for the experimental part: 3. Supplementary experimental: physicochemical assays
The plate was then sealed and incubated at room temperature for 20 hours, without shaking. The plate was centrifuged again for 1 minute at […]
spectrometer equipped with a 5 mm TCI-CryoProbe. […]
deuterated solvent. […] All NMR data were acquired at the […]
contained 16k time-domain data points. Relaxation delay was set to 20 sec. […]

Data set [3] is described as follows: PAMPA passive permeability pH 7.4. The note with it: for PAMPA7.4: pH 7.4, passive permeability Pe. (In PAMPA a lipid-coated filter parts donor from acceptor wells.)
Setting [4] is: TR-FRET IC50 individual replicates, single replicates, italic values used 10nM BCL6, otherwise 1nM BCL6.
The mark [5] stands for this setting: read-out: BCL6 TR-FRET Geo Mean IC50, geometric mean of n replicates, supplement.
Setting [6] is: read-out: TR-FRET IC50, tables and figures.
Where [7] appears, read: read-out: TR-FRET IC50 individual replicates, single replicates, italic values used 10nM BCL6, otherwise 1nM BCL6.

≈ marks a conversion by molar mass, not a printed value. Where “and” joins values, the source holds several entries; their conditions need not be identical. Identical values can stand only once. Like-named read-outs stand apart in the source and are kept apart here.

The term IC50 denotes the midpoint of a concentration-inhibition curve. Broadly, the solubility is the concentration that dissolves in the medium under given conditions. In general, Papp refers to the rate of passage across a membrane or cell layer, normalised by area and donor concentration. High values mean fast passage, low ones slow passage.

Regarding `CCNc1cc(=O)n(C)c2ccc(Nc3cc(C(=O)O)nc(Cl)c3C#N)cc12` [Compound 11a, 6-Chloro-5-cyano-4-((4-(ethylamino)-1-methyl-2-oxo-1,2-dihydroquinolin-6-yl)amino)picolinic Acid], the IC50 in data set [1] (setting [4]) is 810 nM and 840 nM and 1120 nM; in data set [1] (setting [5]) it was 901 nM; in data set [1] (setting [6]) it was 900 nM; in data set [1] (setting [7]), 890 nM and 870 nM. Also, in data set [1], the “BCL6 TR-FRET pIC50 mean” value is 6.05 and 6.045. Moreover, in data set [2], the solubility at 20 h came to 237 µM (≈ 94.3 µg/mL).

As for `CCCNc1cc(=O)n(C)c2ccc(Nc3cc(C(=O)O)nc(Cl)c3C#N)cc12` [Compound 11b, 6-Chloro-5-cyano-4-((1-methyl-2-oxo-4-(propylamino)-1,2-dihydroquinolin-6-yl)amino)picolinic Acid], the IC50 was 1330 nM and 1810 nM in data set [1] (setting [4]); 1510 nM in data set [1] (setting [5]); 1510 nM in data set [1] (setting [6]); 1440 nM and 1490 nM in data set [1] (setting [7]). The “BCL6 TR-FRET pIC50 mean” value in data set [1] was 5.82 and 5.822. In addition, the solubility at 20 h in data set [2] was 40 µM (≈ 16.5 µg/mL).

With `Cn1c(=O)cc(NCCF)c2cc(Nc3cc(C(=O)O)nc(Cl)c3C#N)ccc21` [Compound 11c, 6-Chloro-5-cyano-4-((4-((2-fluoroethyl)amino)-1-methyl-2-oxo-1,2-dihydroquinolin-6-yl)amino)picolinic Acid], the “BCL6 TR-FRET pIC50 mean” value in data set [1] was 6.06 and 6.057. Moreover, the IC50 in data set [1] (setting [5]) is 880 nM and 878 nM; in data set [1] (setting [6]) it was 880 nM; in data set [1] (setting [7]), 870 nM and 890 nM and 880 nM. The compound also yielded a solubility at 20 h in data set [2] of 82 µM (≈ 34.1 µg/mL).

Regarding `Cn1c(=O)cc(NCC2CC2)c2cc(Nc3cc(C(=O)O)nc(Cl)c3C#N)ccc21` [Compound 11d, 6-Chloro-5-cyano-4-((4-((cyclopropylmethyl)amino)-1-methyl-2-oxo-1,2-dihydroquinolin-6-yl)amino)picolinic Acid], the 50% inhibitory concentration (IC50) was 270 nM and 420 nM in data set [1] (setting [4]); 350 nM and 346 nM in data set [1] (setting [5]); 350 nM in data set [1] (setting [6]); 360 nM and 350 nM in data set [1] (setting [7]). Further, in data set [1], the “BCL6 TR-FRET pIC50 mean” value is 6.46 and 6.461. Also, in data set [2], the solubility at 20 h stood at 324 µM (≈ 137 µg/mL).

With `CNC(=O)[C@@H](C)Nc1cc(=O)[nH]c2ccc(Nc3ccnc(Cl)c3C#N)cc12` [Compound 12b, (R)-2-((6-((2-Chloro-3-cyanopyridin-4-yl)amino)-2-oxo-1,2-dihydroquinolin-4-yl)amino)-N-methylpropanamide], the apparent permeability (Papp) in data set [3] (PAMPA, pH 7.4) was < 0.2 ×10⁻⁶ cm/s. Further, the PAMPA7.4 result in data set [3] is “no measurable passive permeability”. The IC50 in data set [1] (setting [4]) is 300 nM (2×) and 220 nM and 280 nM and 190 nM; in data set [1] (setting [5]) it was 253 nM; in data set [1] (setting [6]), 250 nM; in data set [1] (setting [7]), 240 nM and 260 nM. The “BCL6 TR-FRET pIC50 mean” value in data set [1] was 6.60 and 6.596. Further, the solubility at 20 h in data set [2] stood at 64 µM (≈ 25.4 µg/mL).

With `CNC(=O)[C@H](C)Nc1cc(=O)[nH]c2ccc(Nc3ccnc(Cl)c3C#N)cc12` [Compound 12c, (S)-2-((6-((2-Chloro-3-cyanopyridin-4-yl)amino)-2-oxo-1,2-dihydroquinolin-4-yl)amino)-N-methylpropanamide], the IC50 is 3390 nM and 2070 nM and 2270 nM and 3400 nM and 3900 nM and 2940 nM and 1540 nM in data set [1] (setting [4]); 2670 nM in data set [1] (setting [5]); 2670 nM in data set [1] (setting [6]). Also, the “BCL6 TR-FRET pIC50 mean” value in data set [1] was 5.57 and 5.574. Moreover, in data set [2], the solubility at 20 h amounted to 64 µM (≈ 25.4 µg/mL).

As to `CNC(=O)C(Nc1cc(=O)[nH]c2ccc(Nc3ccnc(Cl)c3C#N)cc12)C1CC1` (stereo not shown) [Compound 12d, 2-((6-((2-Chloro-3-cyanopyridin-4-yl)amino)-2-oxo-1,2-dihydroquinolin-4-yl)amino)-2-cyclopropyl-N-methylacetamide], the IC50 in data set [1] (setting [4]) is 1180 nM and 970 nM; in data set [1] (setting [5]), 1080 nM; in data set [1] (setting [6]), 1080 nM; in data set [1] (setting [7]), 1100 nM. Moreover, the “BCL6 TR-FRET pIC50 mean” value in data set [1] was 5.97 and 5.967. The concentration in solution in data set [2] (solubility at 20 h) was 52 µM (≈ 22 µg/mL).

Take `CNC(=O)C(C)Nc1cc(=O)n(C)c2ccc(Nc3ccnc(Cl)c3C#N)cc12` (stereo not shown) [Compound 13a, 2-((6-((2-Chloro-3-cyanopyridin-4-yl)amino)-1-methyl-2-oxo-1,2-dihydroquinolin-4-yl)amino)-N-methylpropanamide]: the PAMPA7.4 in data set [3] is reported as <0.2 x10^-6 cms^-1. This compound also yielded a solubility at 20 h in data set [2] of 184 µM (≈ 75.6 µg/mL).

As to `Cc1nnc(C(C)Nc2cc(=O)n(C)c3ccc(Nc4ccnc(Cl)c4C#N)cc23)o1` (stereo not shown) [Compound 13c, 2-Chloro-4-((1-methyl-4-((1-(5-methyl-1,3,4-oxadiazol-2-yl)ethyl)amino)-2-oxo-1,2-dihydroquinolin-6-yl)amino)nicotinonitrile], the PAMPA7.4 in data set [3] is reported as <0.2 x10^-6 cms^-1. The half-maximal inhibitory concentration (IC50) is 1070 nM and 680 nM in data set [1] (setting [4]); 872 nM in data set [1] (setting [5]); 870 nM in data set [1] (setting [6]); 690 nM and 1180 nM and 840 nM in data set [1] (setting [7]). The “BCL6 TR-FRET pIC50 mean” value in data set [1] was 6.06 and 6.059. Moreover, the solubility at 20 h in data set [2] stood at 247 µM (≈ 108 µg/mL).

Take `CC(Nc1cc(=O)n(C)c2ccc(Nc3ccnc(Cl)c3C#N)cc12)c1ncn(C)n1` (stereo not shown) [Compound 13d, 2-Chloro-4-((1-methyl-4-((1-(1-methyl-1H-1,2,4-triazol-3-yl)ethyl)amino)-2-oxo-1,2-dihydroquinolin-6-yl)amino)nicotinonitrile]: the solubility at 20 h in data set [2] was found to be 258 µM (≈ 112 µg/mL).

Take `C[C@@H](Nc1cc(=O)n(C)c2ccc(Nc3ccnc(Cl)c3C#N)cc12)c1ncccn1` [Compound 13f, (R)-2-Chloro-4-((1-methyl-2-oxo-4-((1-(pyrimidin-2-yl)ethyl)amino)-1,2-dihydroquinolin-6-yl)amino)nicotinonitrile]: in data set [3], the PAMPA7.4 is given as 0.8 x10^-6 cms^-1. The compound also came in with a solubility at 20 h in data set [2] of 126 µM (≈ 54.4 µg/mL).

Take `CC(Nc1cc(=O)n(CC2CC2)c2ccc(Nc3ccnc(Cl)c3C#N)cc12)c1ncccn1` (stereo not shown) [Compound 17a, 2-Chloro-4-((1-(cyclopropylmethyl)-2-oxo-4-((1-(pyrimidin-2-yl)ethyl)amino)-1,2-dihydroquinolin-6-yl)amino)nicotinonitrile]: the PAMPA7.4 in data set [3] was 8.5 x10^-6 cms^-1. The IC50 in data set [1] (setting [4]) was 230 nM and 790 nM; in data set [1] (setting [5]), 418 nM; in data set [1] (setting [6]), 420 nM; in data set [1] (setting [7]), 410 nM. For the same compound, in data set [1], the “BCL6 TR-FRET pIC50 mean” value is 6.38 and 6.379. The same compound showed a solubility at 20 h in data set [2] of 72 µM (≈ 34 µg/mL).

In the case of `CC(Nc1cc(=O)n(CC2CCC2)c2ccc(Nc3ccnc(Cl)c3C#N)cc12)c1ncccn1` (stereo not shown) [Compound 17b, 2-Chloro-4-((1-(cyclobutylmethyl)-2-oxo-4-((1-(pyrimidin-2-yl)ethyl)amino)-1,2-dihydroquinolin-6-yl)amino)nicotinonitrile], the PAMPA7.4 in data set [3] is given as 21 x10^-6 cms^-1. For the same compound, the IC50 in data set [1] (setting [4]) was 250 nM and 210 nM and 640 nM; in data set [1] (setting [5]) it was 324 nM; in data set [1] (setting [6]) it was 320 nM. Moreover, in data set [1], the “BCL6 TR-FRET pIC50 mean” value was 6.49 and 6.489. Further, the solubility at 20 h in data set [2] amounted to 32 µM (≈ 15.6 µg/mL).

For the compound `Cc1cnc(C(C)Nc2cc(=O)n(C)c3ccc(Nc4ccnc(Cl)c4C#N)cc23)nc1` (stereo not shown) [Compound 24a, 2-Chloro-4-((1-methyl-4-((1-(5-methylpyrimidin-2-yl)ethyl)amino)-2-oxo-1,2-dihydroquinolin-6-yl)amino)nicotinonitrile], the PAMPA7.4 in data set [3] was 5.6 x10^-6 cms^-1. Besides, the IC50 in data set [1] (setting [4]) is 60 nM and 90 nM; in data set [1] (setting [5]), 70 nM and 73.1 nM; in data set [1] (setting [6]), 73 nM; in data set [1] (setting [7]) it was 70 nM. In data set [1], the “BCL6 TR-FRET pIC50 mean” value was 7.14 and 7.136. The solubility at 20 h in data set [2] amounted to 31 µM (≈ 13.8 µg/mL).

Turning to `CC(Nc1cc(=O)n(C)c2ccc(Nc3ccnc(Cl)c3C#N)cc12)c1ncc(C2CC2)cn1` (stereo not shown) [Compound 24b, 2-Chloro-4-((4-((1-(5-cyclopropylpyrimidin-2-yl)ethyl)amino)-1-methyl-2-oxo-1,2-dihydroquinolin-6-yl)amino)nicotinonitrile], the PAMPA7.4 in data set [3] is listed as 14 x10^-6 cms^-1. Further, the concentration in solution in data set [2] (solubility at 20 h) came to 32 µM (≈ 15.1 µg/mL).

These data come from publication PMC8667045, “Into Deep Water: Optimizing BCL6 Inhibitors by Growing into a Solvated Pocket” (Journal of Medicinal Chemistry, 2021).
